Legend:
AR / CBP ternary complex = experiment: Ternary complex formation assay (sandwich ELISA, AR capture / CBP detection) in VCaP cell lysates; format: cell-based; conditions: 1.5 hours treatment, sandwich ELISA (AR capture, CBP or p300 detection)
Procedure, shortened: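 Anti-AR (AR 441)-coated plates capture AR from lysates of VCaP cells grown ≥3 days at 50K/well in 5% charcoal-stripped FBS, dosed with bifunctional for 1.5 h and lysed 30 min at 4 °C. Co-captured CBP/p300 is probed with rabbit mAb and HRP anti-rabbit, then QuantaRed fluorescence (570/585) is read at 0, 5 and 15 min.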

VCaP cells = experiment: VCaP growth inhibition assay; format: cell-based; conditions: 30 pM R1881, 9 days, CTG
Procedure, shortened: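 Growth read by CTG luminescence after 9-day exposure to compound (final 100 nM–10 fM, 1:5 steps) plus 30 pM R1881, in phenol red-free DMEM with 5% CSS. Cells pre-incubated 72 h before dosing; IC50 by nonlinear 4-parameter regression.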

Row | Structure (SMILES) | EC50 (AR / CBP ternary complex) | IC50 (VCaP cells)
1 | CC(=O)N1CCc2c(c(N3CCCc4ccc(C(F)F)cc43)nn2C2CCN(C(=O)C3CCN(c4ncc(C(=O)NC5C(C)(C)C(Oc6ccc(C#N)c(Cl)c6)C5(C)C)cn4)CC3)CC2)C1 (stereo not drawn) [Compound 122, 2-[4-[4-[5-acetyl-3-[7-(difluoromethyl)-3,4-dihydro-2H-quinolin-1-yl]-6,7-dihydro-4H-pyrazolo[4,3-c]pyridin-1-yl]piperidine-1-carbonyl]-1-piperidyl]-N-[3-(3-chloro-4-cyano-phenoxy)-2,2,4,4-tetramethyl-cyclobutyl]pyrimidine-5-carboxamide] | < 1 nM | ≤ 0.1 nM
2 | CC(=O)N1CCc2c(c(N3CCCc4cc(-c5cnn(C)c5)c(C(F)F)cc43)nn2C2CCN(Cc3cn(CCc4ncc(C(=O)NC5C(C)(C)C(Oc6ccc(C#N)c(Cl)c6)C5(C)C)cn4)nn3)CC2)C1 (stereo not drawn) [Compound 15, 2-[2-[4-[[4-[5-acetyl-3-[7-(difluoromethyl)-6-(1-methylpyrazol-4-yl)-3,4-dihydro-2H-quinolin-1-yl]-6,7-dihydro-4H-pyrazolo[4,3-c]pyridin-1-yl]-1-piperidyl]methyl]triazol-1-yl]ethyl]-N-[3-(3-chloro-4-cyano-phenoxy)-2,2,4,4-tetramethyl-cyclobutyl]pyrimidine-5-carboxamide] | 10 to 100 nM | > 100 nM
3 | Cn1c(=O)sc2ccc(N3CCCc4cc(-c5ccc(CCC6CCN(c7ncc(C(=O)NC8C(C)(C)C(Oc9ccc(C#N)c(Cl)c9)C8(C)C)cn7)CC6)nc5)c(C(F)F)cc43)cc21 (stereo not drawn) [Compound 236, N-[3-(3-chloro-4-cyano-phenoxy)-2,2,4,4-tetramethyl-cyclobutyl]-2-[4-[2-[5-[7-(difluoromethyl)-1-(3-methyl-2-oxo-1,3-benzothiazol-5-yl)-3,4-dihydro-2H-quinolin-6-yl]-2-pyridyl]ethyl]-1-piperidyl]pyrimidine-5-carboxamide] | > 100 nM | > 100 nM
4 | COc1cc(OC2C(C)(C)C(NC(=O)c3ccc(N4CCC5(CC4)CC4(CC(n6nc(N7CCCc8cc(-c9cnn(C)c9)c(C(F)F)cc87)c7c6CCN(C(C)=O)C7)C4)C5)cc3)C2(C)C)ccc1C#N (stereo not drawn) [Compound 286, 4-[2-[5-acetyl-3-[7-(difluoromethyl)-6-(1-methylpyrazol-4-yl)-3,4-dihydro-2H-quinolin-1-yl]-6,7-dihydro-4H-pyrazolo[4,3-c]pyridin-1-yl]-9-azadispiro[3.1.5^6.1^4]dodecan-9-yl]-N-[3-(4-cyano-3-methoxy-phenoxy)-2,2,4,4-tetramethyl-cyclobutyl]benzamide] | > 100 nM | 1 to 100 nM
5 | COc1cc(OC2C(C)(C)C(NC(=O)c3ccc(C#CC4CC(N5CCC(n6nc(N7CCCc8cc(-c9cnn(C)c9)c(C(F)F)cc87)c7c6CCN(C(C)=O)C7)CC5)C4)cc3)C2(C)C)ccc1C#N (stereo not drawn) [Compound 294, 4-[2-[3-[4-[5-acetyl-3-[7-(difluoromethyl)-6-(1-methylpyrazol-4-yl)-3,4-dihydro-2H-quinolin-1-yl]-6,7-dihydro-4H-pyrazolo[4,3-c]pyridin-1-yl]-1-piperidyl]cyclobutyl]ethynyl]-N-[3-(4-cyano-3-methoxy-phenoxy)-2,2,4,4-tetramethyl-cyclobutyl]benzamide] | < 1 nM | 0.1 to 1 nM
6 | COc1cc(OC2C(C)(C)C(NC(=O)c3ccc(N4CCC(C5CCC(n6cc(-c7cc8cccc(-c9nn(C%10CCOCC%10)c%10c9CN(C(C)=O)CC%10)c8cn7)cn6)CC5)CC4)cc3)C2(C)C)ccc1C#N (stereo not drawn) [Compound 271, 4-[4-[4-[4-[8-(5-acetyl-1-tetrahydropyran-4-yl-6,7-dihydro-4H-pyrazolo[4,3-c]pyridin-3-yl)-3-isoquinolyl]pyrazol-1-yl]cyclohexyl]-1-piperidyl]-N-[3-(4-cyano-3-methoxy-phenoxy)-2,2,4,4-tetramethylcyclobutyl]benzamide] | < 1 nM | 0.1 to 1 nM
7 | CC(=O)N1CCc2c(c(-c3cccc4cc(-c5ccc(CCC6CC7(C6)CN(c6ncc(C(=O)NC8C(C)(C)C(Oc9ccc(C#N)c(Cl)c9)C8(C)C)cn6)C7)nc5)ncc34)nn2C2CCOCC2)C1 (stereo not drawn) [Compound 227, 2-[6-[2-[5-[8-(5-acetyl-1-tetrahydropyran-4-yl-6,7-dihydro-4H-pyrazolo[4,3-c]pyridin-3-yl)-3-isoquinolyl]-2-pyridyl]ethyl]-2-azaspiro[3.3]heptan-2-yl]-N-[3-(3-chloro-4-cyano-phenoxy)-2,2,4,4-tetramethyl-cyclobutyl]pyrimidine-5-carboxamide] | < 1 nM | ≤ 0.1 nM
8 | CC(=O)N1CCc2c(c(N3CCCc4cc(C#N)ccc43)nn2C2CC3(C2)CN(CC2CC4(C2)CN(c2ncc(C(=O)NC5C(C)(C)C(Oc6ccc(C#N)c(Cl)c6)C5(C)C)cn2)C4)C3)C1 (stereo not drawn) [Compound 221, 2-[6-[[6-[5-acetyl-3-(6-cyano-3,4-dihydro-2H-quinolin-1-yl)-6,7-dihydro-4H-pyrazolo[4,3-c]pyridin-1-yl]-2-azaspiro[3.3]heptan-2-yl]methyl]-2-azaspiro[3.3]heptan-2-yl]-N-[3-(3-chloro-4-cyano-phenoxy)-2,2,4,4-tetramethyl-cyclobutyl]pyrimidine-5-carboxamide] | 1 to 10 nM | 1 to 100 nM
9 | Cn1c(=O)sc2ccc(N3CCCc4cc(-c5ccc(CCC6CCN(c7ncc(C(=O)NC8C(C)(C)C(Oc9ccc(C#N)c(Cl)c9)C8(C)C)cn7)CC6)nc5)ncc43)cc21 (stereo not drawn) [Compound 237, N-[3-(3-chloro-4-cyano-phenoxy)-2,2,4,4-tetramethyl-cyclobutyl]-2-[4-[2-[5-[1-(3-methyl-2-oxo-1,3-benzothiazol-5-yl)-3,4-dihydro-2H-1,7-naphthyridin-6-yl]-2-pyridyl]ethyl]-1-piperidyl]pyrimidine-5-carboxamide] | < 1 nM | 1 to 100 nM

Continued, values first:

Row | EC50 (AR / CBP ternary complex) | IC50 (VCaP cells) | Structure (SMILES)
10 | < 1 nM | ≤ 0.1 nM | COc1cc(OC2C(C)(C)C(NC(=O)c3ccc(N4CCC5(CC(N6CCC(n7nc(N8CCCc9cc(-c%10cnn(C)c%10)c(C(F)F)cc98)c8c7CCN(C(C)=O)C8)CC6)C5)C4)cc3)C2(C)C)ccc1C#N (stereo not drawn) [Compound 347, 4-[2-[4-[5-acetyl-3-[7-(difluoromethyl)-6-(1-methylpyrazol-4-yl)-3,4-dihydro-2H-quinolin-1-yl]-6,7-dihydro-4H-pyrazolo[4,3-c]pyridin-1-yl]-1-piperidyl]-6-azaspiro[3.4]octan-6-yl]-N-[3-(4-cyano-3-methoxy-phenoxy)-2,2,4,4-tetramethyl-cyclobutyl]benzamide]
11 | < 1 nM | ≤ 0.1 nM | CC(=O)N1CCc2c(c(N3CCCc4cc(-c5cnn(C)c5)c(C(F)F)cc43)nn2C2CCC3(CC2)CN(C2CCN(c4ncc(C(=O)NC5C(C)(C)C(Oc6ccc(C#N)c(Cl)c6)C5(C)C)cn4)CC2)C3)C1 (stereo not drawn) [Compound 371, 2-[4-[7-[5-acetyl-3-[7-(difluoromethyl)-6-(1-methylpyrazol-4-yl)-3,4-dihydro-2H-quinolin-1-yl]-6,7-dihydro-4H-pyrazolo[4,3-c]pyridin-1-yl]-2-azaspiro[3.5]nonan-2-yl]-1-piperidyl]-N-[3-(3-chloro-4-cyano-phenoxy)-2,2,4,4-tetramethyl-cyclobutyl]pyrimidine-5-carboxamide]
12 | < 1 nM | ≤ 0.1 nM | COc1cc(OC2C(C)(C)C(NC(=O)c3ccc(N4CCN(C5CCN(c6ccc(-c7cc8c(cn7)N(c7nn(C9CCOCC9)c9c7CN(C(C)=O)CC9)CCC8)cn6)CC5)CC4)cc3)C2(C)C)ccc1C#N (stereo not drawn) [Compound 323, 4-[4-[1-[5-[l-(5-acetyl-1-tetrahydropyran-4-yl-6,7-dihydro-4H-pyrazolo[4,3-c]pyridin-3-yl)-3,4-dihydro-2H-1,7-naphthyridin-6-yl]-2-pyridyl]-4-piperidyl]piperazin-1-yl]-N-[3-(4-cyano-3-methoxy-phenoxy)-2,2,4,4-tetramethyl-cyclobutyl]benzamide]
13 | < 1 nM | 0.1 to 1 nM | COc1cc(OC2C(C)(C)C(NC(=O)c3ccc(N4CC5(CCC(N6CCC(n7nc(N8CCCc9cc(C#N)c(C)cc98)c8c7CCN(C(C)=O)C8)CC6)CC5)C4)cc3)C2(C)C)ccc1C#N (stereo not drawn) [Compound 455, 4-[7-[4-[5-acetyl-3-(6-cyano-7-methyl-3,4-dihydro-2H-quinolin-1-yl)-6,7-dihydro-4H-pyrazolo[4,3-c]pyridin-1-yl]-1-piperidyl]-2-azaspiro[3.5]nonan-2-yl]-N-[3-(4-cyano-3-methoxy-phenoxy)-2,2,4,4-tetramethyl-cyclobutyl]benzamide]
14 | < 1 nM | ≤ 0.1 nM | COc1cc(OC2C(C)(C)C(NC(=O)c3ccc(N4CC(N5CCC6(CCC(n7nc(N8CCCc9cc(-c%10cnn(C)c%10)c(C(F)F)cc98)c8c7CCN(C(C)=O)C8)CC6)C5)C4)cc3)C2(C)C)ccc1C#N (stereo not drawn) [Compound 402, 4-[3-[8-[5-acetyl-3-[7-(difluoromethyl)-6-(1-methylpyrazol-4-yl)-3,4-dihydro-2H-quinolin-1-yl]-6,7-dihydro-4Hpyrazolo[4,3-c]pyridin-1-yl]-2-azaspiro[4.5]decan-2-yl]azetidin-1-yl]-N-[3-(4-cyano-3-methoxy-phenoxy)-2,2,4,4-tetramethyl-cyclobutyl]benzamide]
15 | < 1 nM | 0.1 to 1 nM | COc1cc(OC2C(C)(C)C(NC(=O)c3ccc(OC4CCC5(CC4)CC(N4CCC(n6nc(N7CCCc8cc(-c9cnn(C)c9)c(C(F)F)cc87)c7c6CCN(C(C)=O)C7)CC4)C5)cc3)C2(C)C)ccc1C#N (stereo not drawn) [Compound 396, 4-[2-[4-[5-acetyl-3-[7-(difluoromethyl)-6-(1-methylpyrazol-4-yl)-3,4-dihydro-2H-quinolin-1-yl]-6,7-dihydro-4H-pyrazolo[4,3-c]pyridin-1-yl]-1-piperidyl]spiro[3.5]nonan-7-yl]oxy-N-[3-(4-cyano-3-methoxy-phenoxy)-2,2,4,4-tetramethyl-cyclobutyl]benzamide]

From patent publication US20250129070A1, “BIFUNCTIONAL ANDROGEN RECEPTOR COMPOUNDS” (priority 2023, published 2025)
